Data published in patent publication US10450421B2, “Synthesis of multiarm poly[(R)-3-hydroxybutyrate] and its derivatives” (AGENCY FOR SCIENCE, TECHNOLOGY AND RESEARCH, priority 2015, dated 2019).
Ends that are not written are not given here.

Tests used:
S. aureus = experiment: Antimicrobial test, MIC against S. aureus; assay type: cell-based; conditions: Gram-positive bacteria S. aureus (n = 2)
Description: (§1) The solutions based on the Q-PHB-PDMAEMA were tested for efficacy in killing clinically significant pathogens: the […] and Gram-negative bacteria (E. coli).

E. coli = experiment: Antimicrobial test, MIC against E. coli; assay type: cell-based; conditions: Gram-negative bacteria E. coli (n = 2)
Description: as §1

GIGKFLHSAGKFGKAFVGEIMKS [Magainin I]
MIC (S. aureus): 130 µg/mL | MIC (E. coli): 130 µg/mL
